# The source made the active and inactive calls. The rule behind the calls is not given here. Peptide text beside a SMILES is read from it.
# How the values were obtained:
# Pseudomonas aeruginosa [1] = assay: Antimicrobial activity against Pseudomonas aeruginosa FRD1 assessed as lethal concentration; type: functional
# Escherichia coli [2] = assay: Antimicrobial activity against Escherichia coli J14b assessed as lethal concentration; type: functional
# [3] = Solubility of compound in guanidine hydrochloride at 1 mg/ml by RP-HPLC analysis; type: physicochemical
# Micrococcus luteus [4] = assay: Antimicrobial activity against Micrococcus luteus in presence of human serum; type: functional, organism-based
# Priestia megaterium = assay: Antimicrobial activity against Bacillus megaterium CGMCC 1.0459 assessed as lethal concentration; type: functional
# Pseudomonas aeruginosa [5] = assay: Antimicrobial activity against Pseudomonas aeruginosa 11082616 assessed as lethal concentration; type: functional
# Staphylococcus aureus [6] = assay: Antimicrobial activity against methicillin-resistant Staphylococcus aureus P1374 assessed as lethal concentration; type: functional
# Staphylococcus aureus [7] = assay: Antimicrobial activity against penicillin-resistant Staphylococcus aureus P1383 assessed as lethal concentration; type: functional
# Pseudomonas aeruginosa [8] = assay: Antimicrobial activity against Pseudomonas aeruginosa 11092618 assessed as lethal concentration; type: functional
# [9] = Solubility of compound in water at 1 nmol by RP-HPLC analysis; type: physicochemical; details: buffer
# Escherichia coli [10] = assay: Antimicrobial activity against Escherichia coli J45b assessed as lethal concentration; type: functional
# HEK293 = assay: Cytotoxicity against HEK293 cells assessed as reduction in cell viability at 200 microg/ml incubated for 48 hrs by CCK-8 assay; type: toxicity, cell-based; details: human, hek293, 48 h, dose 200 µg/ml
# Streptococcus mutans [11] = assay: Antimicrobial activity against Streptococcus mutans ATCC 1.2499 assessed as lethal concentration; type: functional
# Staphylococcus aureus [12] = assay: Antimicrobial activity against Staphylococcus aureus J685 assessed as lethal concentration; type: functional
# Cell membrane [13] = assay: Induction of membrane disruption in Staphylococcus epidermidis incubated for 30 mins by transmission electron microscopic analysis; type: cell membranes
# Curtobacterium luteum = assay: Antimicrobial activity against Curtobacterium luteum assessed as lethal concentration; type: functional
# Pseudomonas aeruginosa [14] = assay: Antimicrobial activity against Pseudomonas aeruginosa 11092304 assessed as lethal concentration; type: functional
# Streptococcus sanguinis = assay: Antimicrobial activity against Streptococcus sanguinis ATCC 1.2497 assessed as lethal concentration; type: functional
# Ralstonia solanacearum = assay: Antimicrobial activity against Ralstonia solanacearum assessed as lethal concentration; type: functional
# Erythrocyte = assay: Hemolytic activity in mouse erythrocytes assessed as hemolysis at 100 uM; type: toxicity, cell-based
# Salmonella enterica [15] = assay: Antimicrobial activity against Salmonella enterica ATCC 14028 at 0.25 to 1 nmol; type: functional, organism-based; details: dose 0.25-1 nmol
# Cell membrane [16] = assay: Disruption of outer membrane integrity in […] by NPN uptake assay; type: cell membranes
# Staphylococcus warneri = assay: Antimicrobial activity against Staphylococcus warneri ATCC 1.2824 assessed as lethal concentration; type: functional
# Staphylococcus [17] = assay: Antimicrobial activity against methicillin-resistant coagulase negative Staphylococcus P1369 assessed as lethal concentration; type: functional
# Pseudomonas aeruginosa [18] = assay: Antimicrobial activity against Pseudomonas aeruginosa 374 assessed as lethal concentration; type: functional
# Escherichia coli [19] = assay: Antimicrobial activity against Escherichia coli J23a assessed as lethal concentration; type: functional
# Pseudomonas aeruginosa [20] = assay: Antimicrobial activity against Pseudomonas aeruginosa 11082603 assessed as lethal concentration; type: functional
# Staphylococcus aureus [21] = assay: Antimicrobial activity against methicillin-resistant Staphylococcus aureus P1386 assessed as lethal concentration; type: functional
# Streptococcus salivarius = assay: Antimicrobial activity against Streptococcus salivarius ATCC 1.2498 assessed as lethal concentration; type: functional
# Komagataella pastoris = assay: Antifungal activity against Pichia pastoris X33 assessed as lethal concentration; type: functional
# Geotrichum candidum = assay: Antifungal activity against Geotrichum candidum CCTCC AY 93038 assessed as lethal concentration; type: functional
# Micrococcus luteus [22] = assay: Antimicrobial activity against Micrococcus luteus CGMCC 1.0290 assessed as lethal concentration; type: functional
# Escherichia coli [23] = assay: Antimicrobial activity against Escherichia coli J16c assessed as lethal concentration; type: functional
# [24] = system: Lysinibacillus fusiformis; assay: Antimicrobial activity against Lysinibacillus fusiformis assessed as lethal concentration; type: functional
# Escherichia coli [25] = assay: Antimicrobial activity against Escherichia coli DH5alpha assessed as lethal concentration; type: functional
# Salmonella enterica [26] = assay: Antimicrobial activity against Salmonella enterica ATCC 14028 assessed as lethal concentration; type: functional
# Alcaligenes faecalis = assay: Antimicrobial activity against Alcaligenes faecalis CGMCC 1.1837 assessed as lethal concentration; type: functional
# Pseudomonas aeruginosa [27] = assay: Antimicrobial activity against Pseudomonas aeruginosa QT1 assessed as lethal concentration; type: functional
# Streptococcus mutans [28] = assay: Antimicrobial activity against Streptococcus mutans ATCC 1.2499 at 1 nmol relative to control; type: functional, organism-based
# Pseudomonas aeruginosa [29] = assay: Antimicrobial activity against Pseudomonas aeruginosa DH assessed as lethal concentration; type: functional
# [30] = Stability of compound in PBS at pH 7 measured after 3 days; type: physicochemical; details: buffer, pH 7, 72 h; time 3 day
# Pseudomonas aeruginosa [31] = assay: Antimicrobial activity against Pseudomonas aeruginosa O1 assessed as lethal concentration; type: functional
# Staphylococcus [32] = assay: Antimicrobial activity against methicillin-resistant coagulase negative Staphylococcus P1369 at 0.25 to 1 nmol; type: functional, organism-based; details: dose 0.25-1 nmol
# Pseudomonas aeruginosa [33] = assay: Antimicrobial activity against Pseudomonas aeruginosa assessed as lethal concentration; type: functional
# Micrococcus luteus [34] = assay: Antimicrobial activity against Micrococcus luteus in presence of NaCl; type: functional, organism-based
# [35] = system: Staphylococcus epidermidis; assay: Antimicrobial activity against penicillin-resistant Staphylococcus epidermidis P1389 assessed as lethal concentration; type: functional
# Cell membrane [36] = assay: Induction of membrane disruption in Staphylococcus epidermidis incubated for 90 mins by SEM analysis; type: cell membranes
# [37] = Retention time of the compound by RP-HPLC analysis; type: physicochemical
# [38] = system: Stenotrophomonas maltophilia; assay: Antimicrobial activity against Stenotrophomonas maltophilia CGMCC 1.1788 assessed as lethal concentration; type: functional
# Cell membrane [39] = assay: Induction of cytoplasmic membrane disruption in Bacillus megaterium assessed as increase in fluorescence intensity by NPN uptake assay; type: cell membranes; details: Priestia megaterium
# Bacillus subtilis = assay: Antimicrobial activity against Bacillus subtilis CGMCC 1.2428 assessed as lethal concentration; type: functional
# Escherichia coli [40] = assay: Antimicrobial activity against Escherichia coli G2b assessed as lethal concentration; type: functional
smiles,measurement,setting,value
CC[C@H](C)[C@H](NC(=O)[C@H](CCCCN)NC(=O)[C@H](CC(N)=O)NC(=O)[C@H](CC(N)=O)NC(=O)[C@H](CS)NC(=O)[C@H](Cc1ccc(O)cc1)NC(=O)[C@H](CS)NC(=O)[C@@H](NC(=O)[C@H](C)N)[C@@H](C)O)C(=O)N[C@@H](CS)C(=O)N[C@H](C(=O)N[C@@H](CS)C(=O)N[C@@H](CCCNC(=N)N)C(=O)N[C@@H](CCCNC(=N)N)C(N)=O)C(C)C (H-ATCYCNNKICVCRR-NH2),LD,Pseudomonas aeruginosa [1],21.95 µM
same,LD,Escherichia coli [2],12.9 µM
same,solubility,[3],Soluble
same,Activity,Micrococcus luteus [4],Active
same,LD,Priestia megaterium,1.23 µM
same,LD,Pseudomonas aeruginosa [5],35.1 µM
same,LD,Staphylococcus aureus [6],4.62 µM
same,LD,Staphylococcus aureus [7],1.17 µM
same,LD,Pseudomonas aeruginosa [8],75.89 µM
same,solubility,[9],Soluble
same,LD,Escherichia coli [10],7.14 µM
same,Activity,HEK293,Non-Toxic
same,LD,Streptococcus mutans [11],3.22 µM
same,LD,Staphylococcus aureus [12],7.01 µM
same,Activity,Cell membrane [13],Active
same,LD,Curtobacterium luteum,0.87 µM
same,LD,Pseudomonas aeruginosa [14],43.43 µM
same,LD,Streptococcus sanguinis,2.58 µM
same,LD,Ralstonia solanacearum,17.5 µM
same,Activity,Erythrocyte,Non-Toxic
same,Activity,Salmonella enterica [15],Active
same,Activity,Cell membrane [16],Active
same,LD,Staphylococcus warneri,4.17 µM
same,LD,Staphylococcus [17],0.27 µM
same,LD,Pseudomonas aeruginosa [18],35.1 µM
same,LD,Escherichia coli [19],7.86 µM
same,LD,Pseudomonas aeruginosa [20],15.38 µM
same,LD,Staphylococcus aureus [21],3.46 µM
same,LD,Streptococcus salivarius,2.51 µM
same,LD,Komagataella pastoris,7.86 µM
same,LD,Geotrichum candidum,9.62 µM
same,LD,Micrococcus luteus [22],2.6 µM
same,LD,Escherichia coli [23],7.86 µM
same,LD,[24],0.63 µM
same,LD,Escherichia coli [25],21.42 µM
same,LD,Salmonella enterica [26],4.88 µM
same,LD,Alcaligenes faecalis,10.4 µM
same,LD,Pseudomonas aeruginosa [27],22.87 µM
same,Activity,Streptococcus mutans [28],inactive
same,LD,Pseudomonas aeruginosa [29],49.32 µM
same,Stability,[30],Stable
same,LD,Pseudomonas aeruginosa [31],21.42 µM
same,Activity,Staphylococcus [32],Active
same,LD,Pseudomonas aeruginosa [33],7.32 µM
same,Activity,Micrococcus luteus [34],Active
same,LD,[35],12.79 µM
same,Activity,Cell membrane [36],Active
same,Retention_time,[37],14.5 min
same,LD,[38],21.72 µM
same,Activity,Cell membrane [39],Active
same,LD,Bacillus subtilis,2.6 µM
same,LD,Escherichia coli [40],12.9 µM

# Source: ChEMBL document CHEMBL5528052, “Single Deletion Unmasks Hidden Anti-Gram-Negative Bacterial Activity of an Insect Defensin-Derived Peptide” (J Med Chem, 2024)
